Peptide text beside a SMILES is read from it. * marks the point of attachment. Cbz = O=C(OCc1ccccc1)*
What follows are molecules tested on PTP1B/TC-PTP. Details: HEK293 cells, followed by 4 h DU-14 at 100 nM.
Format: cell-based

| SMILES | effect of pre-treatment/addition on DU-14 mediated PTP1B and TC-PTP degradation |
| --- | --- |
| Nc1cccc2c1CN(C1CCC(=O)NC1=O)C2=O (stereo not shown) [Lenalidomide] | had no effect |
| CC(C)C[C@@H](C=O)NC(=O)[C@H](CC(C)C)NC(=O)[C@H](CC(C)C)NC(=O)OCc1ccccc1 [MG-132] (Cbz-Leu-Leu-Leu-aldehyde) | markedly reduced |
| Cc1ncsc1-c1ccc([C@H](C)NC(=O)[C@@H]2C[C@@H](O)CN2C(=O)[C@@H](N)C(C)(C)C)cc1 [(S,R,S)-AHPC-Me] | reduced |
| NS(=O)(=O)OC[C@@H]1C[C@@H](n2ccc3c(N[C@H]4CCc5ccccc54)ncnc32)C[C@@H]1O [MLN-4924] | markedly reduced |

— article PMC10196813 (Angewandte Chemie (International ed. in English), 2023)
